# From patent US9353082B2, “Pharmaceutical compounds” (BIAL—PORTELA & CA, S.A., priority 2008, dated 2016)
# Key:
# FAAH [1] = target: T1, FAAH (Rattus norvegicus, UniProt P97612); assay: In vitro FAAH activity in rat brain membranes, 3H-AEA substrate, % of control; assay type: biochemical, Wistar rats; conditions: low value = strong inhibitor; for In Vitro FAAH activity, 100 nM: 100 nM test compound; for In Vitro FAAH activity, 10 uM: 10 uM test compound
# T1 construct: Frozen brains (without cerebellum) from Wistar rats were used; from tissue; host or cells: Wistar rat brain (without cerebellum), washed membrane pellets
# T1 sequence (P97612 1-579): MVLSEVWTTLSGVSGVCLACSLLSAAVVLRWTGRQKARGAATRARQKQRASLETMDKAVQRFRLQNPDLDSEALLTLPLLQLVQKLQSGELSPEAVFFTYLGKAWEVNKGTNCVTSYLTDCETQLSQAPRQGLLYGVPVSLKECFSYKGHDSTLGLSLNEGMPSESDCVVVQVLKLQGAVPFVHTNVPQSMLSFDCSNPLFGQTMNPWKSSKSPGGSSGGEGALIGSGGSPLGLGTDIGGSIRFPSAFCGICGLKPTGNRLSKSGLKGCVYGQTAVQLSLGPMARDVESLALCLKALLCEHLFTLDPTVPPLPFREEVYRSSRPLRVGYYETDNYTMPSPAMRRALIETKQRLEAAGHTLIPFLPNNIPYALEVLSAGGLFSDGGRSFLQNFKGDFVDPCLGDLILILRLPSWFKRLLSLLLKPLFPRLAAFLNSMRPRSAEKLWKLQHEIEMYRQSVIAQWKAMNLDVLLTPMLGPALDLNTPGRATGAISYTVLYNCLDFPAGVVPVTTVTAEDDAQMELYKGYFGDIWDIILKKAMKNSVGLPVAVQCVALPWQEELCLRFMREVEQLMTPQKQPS
# How it was run: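 Wistar rat brain membranes (5 μg protein) preincubated 15 min at 37 °C with compound at 10 μM or 0.1 μM (0.1% DMSO), then 2 μM AEA including 3H-AEA with 0.1% BSA, Tris pH 7.6, 10 min. 3H-ethanolamine counted after charcoal stop; % of no-compound control after blank subtraction.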
# FAAH [2] = target: T2, FAAH (Mus musculus, UniProt O08914); assay: In vivo FAAH inhibition after oral dosing, remaining activity in brain homogenate (BRh, central nervous tissue); design: species or system NMRI mice; conditions: brain homogenate; for In Vivo BRh 3 mg · kg · 8 h (remaining FAAH activity): 3 mg/kg oral, low value = strong inhibitor
# T2 construct: A fragment of liver, left lung lobe and brain without cerebellum were removed; from tissue; host or cells: male NMRI mice; brain (without cerebellum) and liver homogenates
# T2 sequence (O08914 1-579): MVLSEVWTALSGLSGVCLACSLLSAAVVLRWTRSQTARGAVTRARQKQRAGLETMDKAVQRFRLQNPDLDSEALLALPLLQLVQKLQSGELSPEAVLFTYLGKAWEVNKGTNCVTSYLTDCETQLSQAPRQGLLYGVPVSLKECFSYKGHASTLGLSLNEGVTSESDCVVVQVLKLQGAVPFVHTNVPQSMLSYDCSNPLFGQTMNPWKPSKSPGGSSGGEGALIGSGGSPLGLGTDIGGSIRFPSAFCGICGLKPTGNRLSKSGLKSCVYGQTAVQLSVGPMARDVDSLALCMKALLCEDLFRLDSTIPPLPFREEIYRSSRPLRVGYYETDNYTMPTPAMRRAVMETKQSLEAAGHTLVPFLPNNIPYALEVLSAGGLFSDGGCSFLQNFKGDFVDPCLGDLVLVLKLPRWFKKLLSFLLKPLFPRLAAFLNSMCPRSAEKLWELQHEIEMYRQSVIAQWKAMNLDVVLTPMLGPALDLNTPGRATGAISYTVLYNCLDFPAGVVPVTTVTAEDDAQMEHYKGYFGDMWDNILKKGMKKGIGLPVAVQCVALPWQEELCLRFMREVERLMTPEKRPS
# How it was run: (§1)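 Male NMRI mice, fasted overnight, got 30 or 3 mg/kg compound orally (0.5% CMC suspension or water) and were compared with vehicle controls. Brain (no cerebellum) and liver homogenates were incubated with 2 μM AEA plus 5 nM 3H-AEA at 37 °C, 10 min for brain and 7 min for liver. Remaining FAAH activity is % of vehicle after blank subtraction.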
# FAAH [3] = target: T2, FAAH; assay: In vivo FAAH inhibition after oral dosing, remaining activity in liver homogenate (LVh, peripheral tissue); design: species or system NMRI mice; conditions: liver homogenate; for In Vivo LVh 3 mg · kg · 8 h (remaining FAAH activity): 3 mg/kg oral, low value = strong inhibitor
# How it was run: as §1
Compound,"In Vitro FAAH activity, 100 nM (FAAH [1])","In Vitro FAAH activity, 10 uM (FAAH [1])","In Vivo BRh 30 mg/kg 1 h, remaining FAAH activity (FAAH [2])","In Vivo LVh 30 mg/kg 1 h, remaining FAAH activity (FAAH [3])","In Vivo BRh 3 mg/kg 8 h, remaining FAAH activity (FAAH [2]; 3 mg/kg, 8 h)","In Vivo LVh 3 mg/kg 8 h, remaining FAAH activity (FAAH [3]; 3 mg/kg, 8 h)",In Vivo BRh 3 mg · kg · 8 h (remaining FAAH activity) (FAAH [2]; 8 h),In Vivo LVh 3 mg · kg · 8 h (remaining FAAH activity) (FAAH [3]; 8 h)
"CN(C(=O)n1cnc(-c2ccccc2)c1)c1ccccc1 [Compound 4, N-methyl-N,4-diphenyl-1H-imidazole-1-carboxamide]",83.6 % of control,0.1 % of control,14.3 % of control,10.6 % of control,,,,
"CN(C(=O)n1cnc(-c2ccc3ccccc3c2)c1)c1ccccc1 [Compound 14, N-methyl-4-(naphthalen-2-yl)-N-phenyl-1H-imidazole-1-carboxamide]",68.3 % of control,0 % of control,96.7 % of control,77.3 % of control,,,,
"O=C(N1CCOCC1)n1nnc2ccccc21 [Compound 19, (1H-benzo[d][1,2,3]triazol-1-yl)(morpholino)methanone]",3.1 % of control,0.1 % of control,46.6 % of control,41.1 % of control,,,,
"CN(C(=O)n1cnc(-c2ccc(F)cc2)c1)c1ccccc1 [Compound 29, 4-(4-fluorophenyl)-N-methyl-N-phenyl-1H-imidazole-1-carboxamide]",52.5 % of control,0 % of control,10.7 % of control,17.2 % of control,,,,
"CN(C(=O)n1nnc2ccc(Cl)cc21)c1ccccc1 [Compound 32, 6-chloro-N-methyl-N-phenyl-1H-benzo[d][1,2,3]triazole-1-carboxamide]",0.1 % of control,0 % of control,85.9 % of control,64.9 % of control,,,,
"CN(C(=O)n1nnc2cc(Cl)ccc21)c1ccccc1 [Compound 33, 5-chloro-N-methyl-N-phenyl-1H-benzo[d][1,2,3]triazole-1-carboxamide]",6.2 % of control,0 % of control,82.3 % of control,76.7 % of control,,,,
"CN(C(=O)n1nnc2ccccc21)c1ccccc1 [Compound 34, N-methyl-N-phenyl-1H-benzo[d][1,2,3]triazole-1-carboxamide]",0.6 % of control,0 % of control,33.6 % of control,34.3 % of control,,,,
"CN(C(=O)n1cnc(-c2cccc(O)c2)c1)c1ccccc1 [Compound 40, 4-(3-hydroxyphenyl)-N-methyl-N-phenyl-1H-imidazole-1-carboxamide]",88.8 % of control,0.1 % of control,81.5 % of control,4.5 % of control,102.8 % of control,25.6 % of control,,
"O=C(N1CCN(c2ccccc2)CC1)n1nnc2ccccc21 [Compound 41, (1H-benzo[d][1,2,3]triazol-1-yl)(4-phenylpiperazin-1-yl)methanone]",0 % of control,0 % of control,87.6 % of control,30 % of control,,,,
"O=C(N1CCC(Cc2ccccc2)CC1)n1nnc2ccccc21 [Compound 42, (1H-benzo[d][1,2,3]triazol-1-yl)(4-benzylpiperidin-1-yl)methanone]",0 % of control,0 % of control,8.4 % of control,6.4 % of control,,,,
"CCN1CCC(N(C)C(=O)n2cnc(-c3cccc(OC)c3)c2)CC1 [Compound no. 502, N-(1-ethylpiperidin-4-yl)-4-(3-methoxyphenyl)-N-methyl-1H-imidazole-1-carboxamide]",,,,,,,50.2 % of control,11.5 % of control
"CCN1CCC(N(C)C(=O)n2cnc(-c3ccc(OC)c(F)c3)c2)CC1 [Compound no. 503, N-(1-ethylpiperidin-4-yl)-4-(3-fluoro-4-methoxyphenyl)-N-methyl-1H-imidazole-1-carboxamide]",,,,,,,78.8 % of control,25.1 % of control
"CN(C(=O)n1cnc(-c2ccccc2)c1)C1CCNCC1.Cl [Compound no. 504, N-methyl-4-phenyl-N-(piperidin-4-yl)-1H-imidazole-1-carboxamide hydrochloride]",,,,,,,112.5 % of control,51.2 % of control
"COc1ccc(-c2cn(C(=O)N(C)C3CCCCC3)cn2)cc1/C(N)=N\O [Compound no. 507, (E)—N-cyclohexyl-4-(3-(N′-hydroxycarbamimidoyl)-4-methoxyphenyl)-N-methyl-1H-imidazole-1-carboxamide]",,,,,,,101.7 % of control,34 % of control
"CCN1CCC(N(C)C(=O)n2cnc(-c3cccc([N+](=O)[O-])c3)c2)CC1 [Compound no. 509, N-(1-ethylpiperidin-4-yl)-N-methyl-4-(3-nitrophenyl)-1H-imidazole-1-carboxamide]",,,,,,,78.3 % of control,17.2 % of control
"CN(C(=O)n1cnc(-c2ccc(O)c(C(N)=O)c2)c1)C1CCOCC1 [Compound no. 513, 4-(3-carbamoyl-4-hydroxyphenyl)-N-methyl-N-(tetrahydro-2H-pyran-4-yl)-1H-imidazole-1-carboxamide]",,,,,,,90.3 % of control,14.4 % of control
"CCCN1CCC(N(C)C(=O)n2cnc(-c3ccc[n+]([O-])c3)c2)CC1 [Compound no. 519, 3-(1-(methyl(1-propylpiperidin-4-yl)carbamoyl)-1H-imidazol-4-yl)pyridine 1-oxide]",,,,,,,82 % of control,4.4 % of control
"CN(C(=O)n1cnc(-c2cccnc2)c1)C1CCN(S(C)(=O)=O)CC1 [Compound no. 533, N-methyl-N-(1-(methylsulfonyl)piperidin-4-yl)-4-(pyridin-3-yl)-1H-imidazole-1-carboxamide]",,,,,,,12 % of control,0.2 % of control
"CCN1CCC(N(C)C(=O)n2cnc(-c3ccc(O)c(F)c3)c2)CC1 [Compound no. 536, N-(1-ethylpiperidin-4-yl)-4-(3-fluoro-4-hydroxyphenyl)-N-methyl-1H-imidazole-1-carboxamide]",,,,,,,74.6 % of control,18.3 % of control
"COc1ccc(-c2cn(C(=O)N(C)C3CCN(CCO)CC3)cn2)cc1F [Compound no. 540, 4-(3-fluoro-4-methoxyphenyl)-N-(1-(2-hydroxyethyl)piperidin-4-yl)-N-methyl-1H-imidazole-1-carboxamide]",,,,,,,89.7 % of control,33.7 % of control
